pIC50: −log10 of the molar value. In brackets after ≈: the same amount, converted by molar mass.
Columns and labels:
[1] = Inhibition of Candida tropicalis ATCC 750 chitin synthase using UDP-GlcNAc as substrate after 60 mins by microplate reader method
Escherichia coli = experiment: Antibacterial activity against Escherichia coli JM 109 after 24 hrs by two-fold serial dilution method; type: functional; conditions: JM 109, 24 h
Proteus vulgaris = experiment: Antibacterial activity against Proteus vulgaris ATCC 8427 after 24 hrs by two-fold serial dilution method; type: functional; conditions: ATCC 8427, 24 h
Candida albicans = experiment: Antifungal activity against Candida albicans CMCC 76615 after 24 hrs by two-fold serial dilution method; type: functional; conditions: CMCC 76615, 24 h
Aspergillus flavus = experiment: Antifungal activity against Aspergillus flavus ATCC 16870 after 24 hrs by two-fold serial dilution method; type: functional; conditions: ATCC 16870, 24 h
Bacillus spizizenii = experiment: Antibacterial activity against Bacillus subtilis ATCC 6633 after 24 hrs by two-fold serial dilution method; type: functional; conditions: ATCC 6633, 24 h
Pseudomonas aeruginosa = experiment: Antibacterial activity against Pseudomonas aeruginosa ATCC 9027 after 24 hrs by two-fold serial dilution method; type: functional; conditions: ATCC 9027, 24 h
Cryptococcus neoformans = experiment: Antifungal activity against Cryptococcus neoformans ATCC 32719 after 24 hrs by two-fold serial dilution method; type: functional; conditions: ATCC 32719, 24 h
Staphylococcus aureus [2] = experiment: Antibacterial activity against Methicillin-resistant Staphylococcus aureus N 315 after 24 hrs by two-fold serial dilution method; type: functional; conditions: N 315, 24 h
Candida tropicalis = experiment: Inhibition of Candida tropicalis ATCC 750 chitin synthase using UDP-GlcNAc as substrate at 300 ug/ml after 60 mins by microplate reader method
Staphylococcus aureus [3] = experiment: Antibacterial activity against Staphylococcus aureus ATCC 25923 after 24 hrs by two-fold serial dilution method; type: functional; conditions: ATCC 25923, 24 h
Aspergillus fumigatus = experiment: Antifungal activity against Aspergillus fumigatus GIMCC 3.19 after 24 hrs by two-fold serial dilution method; type: functional; conditions: GIMCC 3.19, 24 h

SMILES	pIC50 [1]	MIC (Escherichia coli)	MIC (Proteus vulgaris)	MIC (Candida albicans)	MIC (Aspergillus flavus)	MIC (Bacillus spizizenii)	MIC (Pseudomonas aeruginosa)	MIC (Cryptococcus neoformans)	MIC (Staphylococcus aureus [2])	inhibition (Candida tropicalis)	MIC (Staphylococcus aureus [3])	MIC (Aspergillus fumigatus)
COC(=O)C(C)NP(=O)(OCCN(C)c1cc(=O)oc2ccc(C(C)(C)C)cc12)Oc1ccccc1 (stereo not given)	3.77	16 µg/mL (≈ 31 µM)	16 µg/mL (≈ 31 µM)	64 µg/mL (≈ 124 µM)	16 µg/mL (≈ 31 µM)	16 µg/mL (≈ 31 µM)	16 µg/mL (≈ 31 µM)	64 µg/mL (≈ 124 µM)	1 µg/mL (≈ 1.94 µM)	62%	64 µg/mL (≈ 124 µM)	64 µg/mL (≈ 124 µM)
COC(=O)CNP(=O)(OCCN(C)c1cc(=O)oc2ccc(C(C)(C)C)cc12)Oc1ccccc1 (stereo not given)	3.21	64 µg/mL (≈ 127 µM)	64 µg/mL (≈ 127 µM)	64 µg/mL (≈ 127 µM)	64 µg/mL (≈ 127 µM)	16 µg/mL (≈ 31.8 µM)	16 µg/mL (≈ 31.8 µM)	32 µg/mL (≈ 63.7 µM)	8 µg/mL (≈ 15.9 µM)	50%	64 µg/mL (≈ 127 µM)	32 µg/mL (≈ 63.7 µM)
COC(=O)C(C)NP(=O)(OCCN(C)c1cc(=O)oc2cc(C)ccc12)Oc1ccccc1 (stereo not given)	–	128 µg/mL (≈ 270 µM)	256 µg/mL (≈ 540 µM)	128 µg/mL (≈ 270 µM)	64 µg/mL (≈ 135 µM)	256 µg/mL (≈ 540 µM)	256 µg/mL (≈ 540 µM)	128 µg/mL (≈ 270 µM)	256 µg/mL (≈ 540 µM)	45%	128 µg/mL (≈ 270 µM)	128 µg/mL (≈ 270 µM)
COC(=O)CNP(=O)(OCCN(C)c1cc(=O)oc2ccc(C)cc12)Oc1ccccc1 (stereo not given)	3.22	512 µg/mL (≈ 1110 µM)	512 µg/mL (≈ 1110 µM)	128 µg/mL (≈ 278 µM)	64 µg/mL (≈ 139 µM)	256 µg/mL (≈ 556 µM)	128 µg/mL (≈ 278 µM)	64 µg/mL (≈ 139 µM)	256 µg/mL (≈ 556 µM)	51%	256 µg/mL (≈ 556 µM)	64 µg/mL (≈ 139 µM)
COC(=O)CNP(=O)(OCCN(C)c1cc(=O)oc2ccccc12)Oc1ccccc1 (stereo not given)	3.19	128 µg/mL (≈ 287 µM)	512 µg/mL (≈ 1150 µM)	64 µg/mL (≈ 143 µM)	128 µg/mL (≈ 287 µM)	512 µg/mL (≈ 1150 µM)	256 µg/mL (≈ 573 µM)	64 µg/mL (≈ 143 µM)	256 µg/mL (≈ 573 µM)	49%	256 µg/mL (≈ 573 µM)	128 µg/mL (≈ 287 µM)
COC(=O)C(Cc1ccccc1)NP(=O)(OCCN(C)c1cc(=O)oc2c(C)cccc12)Oc1ccccc1 (stereo not given)	–	256 µg/mL (≈ 465 µM)	256 µg/mL (≈ 465 µM)	128 µg/mL (≈ 232 µM)	64 µg/mL (≈ 116 µM)	16 µg/mL (≈ 29.1 µM)	128 µg/mL (≈ 232 µM)	64 µg/mL (≈ 116 µM)	1 µg/mL (≈ 1.82 µM)	48%	256 µg/mL (≈ 465 µM)	128 µg/mL (≈ 232 µM)
COC(=O)C(NP(=O)(OCCN(C)c1cc(=O)oc2cc(C)ccc12)Oc1ccccc1)C(C)C (stereo not given)	–	256 µg/mL (≈ 509 µM)	128 µg/mL (≈ 255 µM)	128 µg/mL (≈ 255 µM)	128 µg/mL (≈ 255 µM)	32 µg/mL (≈ 63.7 µM)	64 µg/mL (≈ 127 µM)	128 µg/mL (≈ 255 µM)	128 µg/mL (≈ 255 µM)	38%	64 µg/mL (≈ 127 µM)	128 µg/mL (≈ 255 µM)
COC(=O)C(Cc1ccccc1)NP(=O)(OCCN(C)c1cc(=O)oc2ccc(C)cc12)Oc1ccccc1 (stereo not given)	–	64 µg/mL (≈ 116 µM)	16 µg/mL (≈ 29.1 µM)	64 µg/mL (≈ 116 µM)	64 µg/mL (≈ 116 µM)	64 µg/mL (≈ 116 µM)	256 µg/mL (≈ 465 µM)	64 µg/mL (≈ 116 µM)	128 µg/mL (≈ 232 µM)	43%	64 µg/mL (≈ 116 µM)	128 µg/mL (≈ 232 µM)
COC(=O)C(Cc1ccccc1)NP(=O)(OCCN(C)c1cc(=O)oc2cc(C)ccc12)Oc1ccccc1 (stereo not given)	3.52	16 µg/mL (≈ 29.1 µM)	16 µg/mL (≈ 29.1 µM)	64 µg/mL (≈ 116 µM)	1 µg/mL (≈ 1.82 µM)	16 µg/mL (≈ 29.1 µM)	128 µg/mL (≈ 232 µM)	32 µg/mL (≈ 58.1 µM)	2 µg/mL (≈ 3.63 µM)	56%	32 µg/mL (≈ 58.1 µM)	64 µg/mL (≈ 116 µM)
CN[C@@H]1[C@H](O[C@H]2[C@H](O[C@H]3[C@H](O)[C@@H](O)[C@H](N=C(N)N)[C@@H](O)[C@@H]3N=C(N)N)O[C@@H](C)[C@]2(O)C=O)O[C@@H](CO)[C@H](O)[C@H]1O [STREPTOMYCIN]	–	4 µg/mL (≈ 6.88 µM)	1 µg/mL (≈ 1.72 µM)	–	–	4 µg/mL (≈ 6.88 µM)	4 µg/mL (≈ 6.88 µM)	–	4 µg/mL (≈ 6.88 µM)	–	4 µg/mL (≈ 6.88 µM)	–

Source: ChEMBL document CHEMBL3758177, “Synthesis and biological evaluation of novel phosphoramidate derivatives of coumarin as chitin synthase inhibitors and antifungal agents” (Eur J Med Chem, 2016)
